Laboratory results from patent publication US12419963B2, “Diels-Alder conjugation methods” (priority 2020, dated 2025).
Square brackets hold non-standard residues; d marks the D form. Peptide text beside a SMILES is read from it. * marks the point of attachment. Dolaproine = CO[C@@H]([C@@H]1CCCN1)[C@@H](C)C(=O)O; Dil = CC[C@H](C)[C@H](NC)[C@@H](CC(=O)O)OC; X1 = C[C@@H](N*)[C@H](O)c1ccccc1; NMeV = CN[C@H](C(=O)O)C(C)C

Legend:
[1] = tested on: SKBR3 (Her2+) cells; assay: In vitro cytotoxicity assay (CCK8 cell viability), SKBR3; type: cell-based
Experimental: (§1) In this Example, the ability of various antibody-drug conjugates and naked payloads to kill antigen-expressing tumor cells in vitro was assessed.
(§2) SKBR3 (Her2+) cells were seeded in 96 well plates at 8000 cells per well in complete growth media and grown overnight. For cell viability curves, serially diluted conjugates or naked payloads were added to the cells at final concentrations ranging from 100 nM to 5 pM and incubated for 3 days. NCI H929 and NCI H1975 (Her2−) cells were run as negative controls using similar conditions. To measure viability, cells were incubated with CCK8 (Dojindo) for the final 2 hours and the absorbance at 450 nm (OD450) was determined on a Victor (Perkin Elmer). Background OD450 levels determined from digitonin (40 nM) treated cells were subtracted from all wells and viability was expressed as a percentage of the untreated controls. IC50 values were determined from a four-parameter logistic equation over a 10-point response curve (GraphPad Prism). […] The interchain disulfide conjugates had similar IC50 values as the transglutaminase site-specific Diels-Alder conjugates. […] IC50 values are corrected for payload equivalents and the results of other transglutaminase site-specific Diels-Alder conjugates' cell viability are shown in Table 5. […]

[2] = tested on: NCI H929 (Her2−) cells; assay: In vitro cytotoxicity assay (CCK8 cell viability), NCI H929 negative control; type: cell-based
Experimental: as §1, §2

For `CC[C@H](C)[C@@H]([C@@H](CC(=O)N1CCC[C@H]1[C@H](OC)[C@@H](C)C(=O)N[C@H](C)[C@H](O)c1ccccc1)OC)N(C)C(=O)[C@@H](NC(=O)[C@@H](NC)C(C)C)C(C)C` [MMAE, Monomethyl auristatin E] (H-[NMeV]V[Dil][Dolaproine]-X1), the IC50 ([1]; Homo sapiens, SK-BR-3, 72 h) was 0.031 nM, the “% Kill” value ([1]; SK-BR-3 cells, 3 days incubation, CCK8) was 97.3% and the IC50 ([2]; Homo sapiens, NCI-H929, 72 h) was 0.209 nM. For the same compound, the “% Kill” value ([2]; NCI H929 cells (HER2-), 3 days incubation, CCK8) was 99.7%.
